Assay results as given in ChEMBL document CHEMBL5154711, “Discovery of Novel Sphingosine-1-Phosphate-1 Receptor Agonists for the Treatment of Multiple Sclerosis” (J Med Chem, 2022).

Legend:
in vitro [1] = conditions: human, microsomes
in vitro [2] = conditions: mouse, microsomes
in vivo [3] = conditions: rat, iv, 1 mg/kg
in vivo [4] = conditions: rat, po, 10 mg/kg
in vivo [5] = conditions: rat, iv, 1 mg/kg; remark: listed apart in the source
in vivo [6] = conditions: rat, iv, 10 mg/kg
in vivo [7] = conditions: rat, iv, 1 mg/kg; remark: listed apart in the source
in vivo [8] = conditions: rat, iv, 1 mg/kg; remark: listed apart in the source
in vivo [9] = conditions: rat, po, 10 mg/kg; remark: listed apart in the source
in vivo [10] = conditions: rat, po, 10 mg/kg; remark: listed apart in the source
in vivo [11] = conditions: rat, po, 10 mg/kg; remark: listed apart in the source
in vitro [12] = conditions: rat, liver microsomes

Row | remaining at 0.5 h, 1 µM (in vitro [1]) | remaining at 0.5 h, 1 µM (in vitro [2]) | SMILES | other results
1 | 98.5% | > 99% | CC(C)Oc1ccc(-n2cc(-c3ccc(CN4CC(C(=O)O)C4)cc3)nn2)cc1Cl | –
2 | 23.2% | 19% | COC(=O)C1CN(Cc2ccc(-n3cc(-c4ccc(OC(C)C)c(Cl)c4)nn3)cc2)C1 | –
3 | 24.1% | 28.8% | COC(=O)C1CN(Cc2ccc(-c3cn(-c4ccc(OC(C)C)c(Cl)c4)nn3)cc2)C1 | –

Row | SMILES | remaining at 0.5 h, 1 µM (in vitro [1]) | remaining at 0.5 h, 1 µM (in vitro [2]) | other results
4 | CC(C)Oc1ccc(C2CC(c3ccc(CN4CCC(C(=O)O)CC4)cc3)=NO2)cc1Cl (stereo not given) | 73.5% | 84.5% | –
5 | CC(C)(C)c1ccc(C2CC(c3ccc(CN4CC(C(=O)[O-])C4)cc3)=NO2)cc1.[Na+] (stereo not given) | 93.8% | 96.7% | half-life (in vivo [3]): 2.4 h; half-life (in vivo [4]): 3.1 h; AUC(0-inf) (in vivo [5]): 1.16 µg·h/mL; AUC(0-inf) (in vivo [6]): 5.19 µg·h/mL; clearance (in vivo [7]): 0.786 L/h/kg; Vd (in vivo [8]): 2.6 L/kg; Cmax (in vivo [9]): 1.07 µg/mL; Tmax (in vivo [10]): 2.3 h; bioavailability (in vivo [11]): 44.9%; remaining at 0.5 h, 1 µM (in vitro [12]): 95.1%
